ChEMBL document CHEMBL5230082, “Recent advances in steroid amino acid conjugates: Old scaffolds with new dimensions” (Eur J Med Chem, 2020)
pIC50, pKi: −log10 of the molar value. In brackets after ≈: the same amount, converted by molar mass. Blank lines part the entries; values can stand above or below the compound they belong to.

Experiments:
Integrin alpha-M/beta-2 = Integrin alpha-M/beta-2 (Homo sapiens, UniProt P05107+P11215); experiment: Antagonist activity at integrin CD11B/CD18 (unknown origin); assay type: protein-complex assay
Chain of Integrin alpha-M/beta-2 (P05107 23-769 limits assumed, other chains not shown): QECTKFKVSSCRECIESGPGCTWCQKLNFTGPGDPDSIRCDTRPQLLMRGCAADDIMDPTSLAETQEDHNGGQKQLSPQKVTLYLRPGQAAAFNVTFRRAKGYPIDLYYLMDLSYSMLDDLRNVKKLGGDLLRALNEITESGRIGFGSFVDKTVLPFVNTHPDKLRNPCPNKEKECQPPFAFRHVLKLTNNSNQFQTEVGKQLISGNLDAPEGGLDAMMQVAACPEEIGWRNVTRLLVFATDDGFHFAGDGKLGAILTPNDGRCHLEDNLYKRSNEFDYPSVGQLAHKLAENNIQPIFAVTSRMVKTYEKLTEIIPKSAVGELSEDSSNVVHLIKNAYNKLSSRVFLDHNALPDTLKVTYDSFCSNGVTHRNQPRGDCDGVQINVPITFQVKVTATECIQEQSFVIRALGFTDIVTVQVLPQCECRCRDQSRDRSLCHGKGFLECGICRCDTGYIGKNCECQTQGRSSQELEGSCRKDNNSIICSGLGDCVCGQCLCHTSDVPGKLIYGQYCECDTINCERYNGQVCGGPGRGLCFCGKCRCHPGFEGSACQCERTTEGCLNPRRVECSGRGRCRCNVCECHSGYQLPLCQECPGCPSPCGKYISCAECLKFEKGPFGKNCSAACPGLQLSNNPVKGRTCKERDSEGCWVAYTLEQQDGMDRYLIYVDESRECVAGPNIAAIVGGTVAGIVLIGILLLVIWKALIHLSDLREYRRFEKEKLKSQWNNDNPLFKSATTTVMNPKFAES

MCF7 = experiment: Antiproliferative activity against human MCF7 by MTT assay; assay type: functional, cell-based
[1] = target: T1, Hepatic sodium/bile acid cotransporter (Homo sapiens, UniProt Q14973); experiment: Binding affinity to NTCP (unknown origin) assessed as inhibition constant
T1 sequence (Q14973 whole entry): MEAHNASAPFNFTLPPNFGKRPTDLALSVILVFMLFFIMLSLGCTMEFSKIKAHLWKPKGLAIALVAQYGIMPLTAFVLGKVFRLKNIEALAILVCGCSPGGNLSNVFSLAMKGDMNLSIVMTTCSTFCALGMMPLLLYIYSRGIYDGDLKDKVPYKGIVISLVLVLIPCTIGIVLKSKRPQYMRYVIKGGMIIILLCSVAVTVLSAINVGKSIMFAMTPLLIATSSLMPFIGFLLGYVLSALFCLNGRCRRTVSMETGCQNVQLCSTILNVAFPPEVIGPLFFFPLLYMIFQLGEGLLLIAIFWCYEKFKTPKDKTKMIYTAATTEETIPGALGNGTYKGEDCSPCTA

[2] = target: T2, Ileal sodium/bile acid cotransporter (Homo sapiens, UniProt Q12908); experiment: Binding affinity to ASBT (unknown origin) assessed as inhibition constant
T2 sequence (Q12908 whole entry): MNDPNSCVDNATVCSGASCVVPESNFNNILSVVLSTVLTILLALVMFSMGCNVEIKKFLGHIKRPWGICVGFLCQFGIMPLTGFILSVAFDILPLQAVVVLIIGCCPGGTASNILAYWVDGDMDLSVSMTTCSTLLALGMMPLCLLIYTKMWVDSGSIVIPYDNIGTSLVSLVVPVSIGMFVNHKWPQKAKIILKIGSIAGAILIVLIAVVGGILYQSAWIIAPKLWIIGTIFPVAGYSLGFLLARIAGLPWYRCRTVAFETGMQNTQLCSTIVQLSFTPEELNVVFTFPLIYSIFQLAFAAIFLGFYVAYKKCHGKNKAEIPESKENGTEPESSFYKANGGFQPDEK

[3] = Inhibition of Sialyltransferase (unknown origin); design: species or system Homo sapiens
Escherichia coli = experiment: Antibacterial activity against Escherichia coli; assay type: functional
Pseudomonas aeruginosa = experiment: Antibacterial activity against Pseudomonas aeruginosa; assay type: functional
Staphylococcus aureus [4] = experiment: Antibacterial activity against Staphylococcus aureus; assay type: functional
Streptococcus pneumoniae = experiment: Antibacterial activity against Streptococcus pneumoniae; assay type: functional
Bacillus subtilis = experiment: Antibacterial activity against Bacillus subtilis; assay type: functional
Klebsiella pneumoniae = experiment: Antibacterial activity against Klebsiella pneumoniae; assay type: functional
Acinetobacter baumannii = experiment: Antibacterial activity against Acinetobacter baumannii; assay type: functional
Streptococcus oralis = experiment: Antibacterial activity against Streptococcus oralis; assay type: functional
Salmonella typhimurium = experiment: Antibacterial activity against Salmonella enterica subsp. enterica serovar Typhimurium; assay type: functional
Shigella flexneri = experiment: Antibacterial activity against Shigella flexneri; assay type: functional
MDA-MB-231 = experiment: Anticancer activity against human MDA-MB-231 cells assessed as growth inhibition; assay type: functional
Staphylococcus aureus [5] = experiment: Antibacterial activity against Staphylococcus aureus assessed as bacterial growth inhibition per disk; assay type: functional
Globisporangium ultimum = experiment: Antifungal activity against Globisporangium ultimum assessed as fungal growth inhibition per disk; assay type: functional
Cladosporium cucumerinum [6] = experiment: Antifungal activity against Cladosporium cucumerinum assessed as zone of inhibition at 30 ug per disc; assay type: functional; details: read-out: DIZ
Candida albicans = experiment: Antifungal activity against Candida albicans assessed as fungal growth inhibition per disk; assay type: functional
Cladosporium cucumerinum [7] = experiment: Antifungal activity against Cladosporium cucumerinum assessed as zone of inhibition at 60 ug per disc; assay type: functional; details: read-out: DIZ
[8] = Anticancer activity against human U-87 MG cells assessed as growth inhibition; assay type: functional, U-87MG ATCC

pIC50 (Integrin alpha-M/beta-2): 5.19
Compound: CO[C@H]1CC[C@@]2(C)[C@@H](CC[C@H]3[C@@H]2CC[C@@]2(C)[C@H]3C[C@H](C(=O)N[C@@H](CCCNC(=N)N)C(=O)NCC(=O)N[C@@H](CC(=O)O)C(N)=O)O[C@]23CCCO3)C1

pIC50 (MCF7): < 4.00
Compound: COC(=O)[C@H](CCCCNC(=O)CC[C@H](C)[C@H]1CC[C@H]2[C@@H]3CC[C@@H]4C[C@H](OC(C)=O)CC[C@]4(C)[C@H]3C[C@H](OC(C)=O)[C@]12C)NC(=O)CC[C@@H](C)[C@H]1CC[C@H]2[C@@H]3CC[C@@H]4C[C@H](OC(C)=O)CC[C@]4(C)[C@H]3C[C@H](OC(C)=O)[C@]12C

pKi [1]: 5.03
pKi [2]: 4.81
Compound: C[C@H](CCC(=O)NCC(=O)O)[C@H]1CC[C@H]2[C@@H]3[C@H](OC(=O)c4cccnc4)C[C@@H]4C[C@H](O)CC[C@]4(C)[C@H]3CC[C@]12C

Compound: C[C@H](CCCn1cc(CCCC(=O)O)nn1)[C@H]1CC[C@H]2[C@@H]3CC[C@@H]4C[C@H](O)CC[C@]4(C)[C@H]3CC[C@]12C
pIC50 [3]: 5.30

MIC (Escherichia coli): 1.5 µg/mL (≈ 2.22 µM)
Compound: CCCCCCCCNCCC[C@@H](C)[C@H]1CC[C@H]2[C@@H]3[C@H](OCCCN)C[C@@H]4C[C@H](OCCCN)CC[C@]4(C)[C@H]3C[C@H](OCCCN)[C@]12C

MIC99 (Pseudomonas aeruginosa): 4 µM (≈ 2.66 µg/mL)
MIC (Staphylococcus aureus [4]): 4 µM (≈ 2.66 µg/mL)
MIC (Streptococcus pneumoniae): 4 µM (≈ 2.66 µg/mL)
MIC (Bacillus subtilis): 4 µM (≈ 2.66 µg/mL)
MIC99 (Klebsiella pneumoniae): 4 µM (≈ 2.66 µg/mL)
MIC99 (Acinetobacter baumannii): 4 µM (≈ 2.66 µg/mL)
MIC99 (Escherichia coli): 4 µM (≈ 2.66 µg/mL)
MIC (Streptococcus oralis): 4 µM (≈ 2.66 µg/mL)
MIC99 (Salmonella typhimurium): 4 µM (≈ 2.66 µg/mL)
MIC99 (Shigella flexneri): 4 µM (≈ 2.66 µg/mL)
Compound: CCCCCCOC(=O)CC[C@@H](C)[C@H]1CC[C@H]2[C@@H]3[C@H](OC(=O)CN)C[C@@H]4C[C@H](OC(=O)CN)CC[C@]4(C)[C@H]3C[C@H](OC(=O)CN)[C@]12C

GI50 (MDA-MB-231): 1.41 µM
Compound: CC[C@H](C)[C@H](NC(=O)CC[C@@H](C)[C@H]1CC[C@H]2[C@@H]3[C@H](O)C[C@@H]4C[C@H](O)CC[C@]4(C)[C@H]3C[C@H](O)[C@]12C)C(=O)Nc1nc2ccccc2s1

pIC50 [3]: 5.15
Compound: CCCP(=O)(OCC)C(Cc1cn(CCC[C@@H](C)[C@H]2CC[C@H]3[C@@H]4CC[C@@H]5C[C@H](O)CC[C@]5(C)[C@H]4CC[C@]23C)nn1)C(=O)O (stereo partly drawn)

MIC (Staphylococcus aureus [5]): 100 µg
MIC (Globisporangium ultimum): 25 µg
MIC (Candida albicans): 75 µg
Compound: C=C(C(=O)N[C@H](C(=O)O)c1ccc(OC)cc1)C(C)CC[C@@H](C)[C@H]1CCC2=C3CC[C@H]4[C@H](C)[C@@H](OS(=O)(=O)O)CC[C@]4(C)[C@H]3CC[C@@]21C (stereo partly drawn)
zone of inhibition at 30 µg/disc (Cladosporium cucumerinum [6]): 10.1 mm
zone of inhibition at 60 µg/disc (Cladosporium cucumerinum [7]): 8 mm

GI50 (MDA-MB-231): 1.35 µM
Compound: CC[C@H](C)[C@H](NC(=O)CC[C@@H](C)[C@H]1CC[C@H]2[C@@H]3[C@H](O)C[C@@H]4C[C@H](O)CC[C@]4(C)[C@H]3C[C@H](O)[C@]12C)C(=O)Nc1ccccc1

Compound: C[C@H](CCC(=O)O)[C@H]1CC[C@H]2[C@@H]3CC[C@@H]4C[C@H](OC(=O)[C@H](N)CC(=O)O)CC[C@]4(C)[C@H]3CC[C@]12C
pIC50 [3]: 5.22

pIC50 (MCF7): < 4.30
Compound: C[C@H](CCC(=O)N[C@@H](CCCCNC(=O)CC[C@H](C)[C@H]1CC[C@H]2[C@@H]3[C@H](O)C[C@@H]4C[C@H](O)CC[C@]4(C)[C@H]3C[C@H](O)[C@]12C)C(=O)O)[C@H]1CC[C@H]2[C@@H]3[C@H](O)C[C@@H]4C[C@H](O)CC[C@]4(C)[C@H]3C[C@H](O)[C@]12C

Compound: CC(C)[C@H](NC(=O)CC[C@@H](C)[C@H]1CC[C@H]2[C@@H]3[C@H](O)C[C@@H]4C[C@H](O)CC[C@]4(C)[C@H]3C[C@H](O)[C@]12C)C(=O)Nc1ccncc1
GI50 [8]: 2.46 µM

pIC50 (Integrin alpha-M/beta-2): 4.96
Compound: CO[C@H]1CC[C@@]2(C)[C@@H](CC[C@H]3[C@@H]2CC[C@@]2(C)[C@H]3C[C@H](C(=O)N[C@@H](CCCNC(=N)N)C(=O)NCC(=O)N[C@@H](CC(=O)O)C(=O)NCc3ccccc3)O[C@]23CCCO3)C1
